Experimental data as given in ChEMBL document CHEMBL4477188, “Callyazepin and (3R)-Methylazacyclodecane, Nitrogenous Macrocycles from a Callyspongia sp. Sponge” (J Nat Prod, 2016).

Experiments:
[1] = test system: Staphylococcus aureus; assay: Antimicrobial activity against Staphylococcus aureus ATCC 6538P after 24 hrs by serial two fold dilution method; assay type: functional
[2] = test system: Bacillus spizizenii; assay: Antimicrobial activity against Bacillus subtilis ATCC 6633 after 24 hrs by serial two fold dilution method; assay type: functional; conditions: ATCC 6633, 24 h
[3] = test system: A549; assay: Cytotoxicity against human A549 cells assessed as reduction in cell viability after 72 hrs by MTT assay; assay type: functional, cell-based; conditions: A549, 72 h
[4] = test system: K562; assay: Cytotoxicity against human K562 cells assessed as reduction in cell viability after 72 hrs by MTT assay; assay type: functional, cell-based; conditions: K562, 72 h
[5] = test system: Escherichia coli; assay: Antimicrobial activity against Escherichia coli ATCC 25922 after 24 hrs by serial two fold dilution method; assay type: functional; conditions: ATCC 25922, 24 h
[6] = test system: Salmonella typhimurium; assay: Antimicrobial activity against Salmonella typhimurium ATCC 14028 after 24 hrs by serial two fold dilution method; assay type: functional, Salmonella enterica subsp. enterica serovar Typhimurium; conditions: Salmonella enterica, ATCC 14028, 24 h
[7] = test system: Proteus vulgaris; assay: Antimicrobial activity against Proteus vulgaris ATCC 3851 after 24 hrs by serial two fold dilution method; assay type: functional; conditions: ATCC 3851, 24 h
[8] = test system: Micrococcus luteus; assay: Antimicrobial activity against Micrococcus luteus IFC 12708 after 24 hrs by serial two fold dilution method; assay type: functional; conditions: IFC 12708, 24 h

Row | MIC [1] [µM] | MIC [2] [µM] | MIC [5] [µM] | MIC [6] [µM] | MIC [7] [µM] | MIC [8] [µM] | Structure (SMILES) | IC50 [3] [µM] | IC50 [4] [µM]
1 | ≥ 128 | ≥ 128 | ≥ 128 | ≥ 128 | ≥ 128 | ≥ 128 | C[C@@H]1CCCCCCCNC1 | 3.8 | 3.2
2 | ≥ 128 | ≥ 128 | ≥ 128 | ≥ 128 | ≥ 128 | ≥ 128 | COC(=O)[C@H](C)[N@@+]1(C=O)CC[C@H]2CCCCCCCCCC[C@H]2[C@@H](C)C1 | 3 | 7.4
3 | – | – | – | – | – | – | COc1cccc2c1C(=O)c1c(O)c3c(c(O)c1C2=O)C[C@@](O)(C(=O)CO)C[C@@H]3O[C@H]1C[C@H](N)[C@H](O)[C@H](C)O1 [DOXORUBICIN] | 0.5 | 0.8
